This is an account of results in ChEMBL document CHEMBL2331218, “Synthesis, biological evaluation, 3D-QSAR studies of novel aryl-2H-pyrazole derivatives as telomerase inhibitors” (Bioorg Med Chem Lett, 2013).

The test system of one assay is SGC-7901. Briefly: Anticancer activity against human SGC7901 cells assessed as cell survival measured after 48 hrs by MTT assay. It counts as functional, cell-based. The note with it: SGC-7901, 48 h.
The subject of a further assay is B16-F10. Nature of the assay: Anticancer activity against mouse B16F10 cells assessed as cell survival measured after 48 hrs by MTT assay. It counts as functional, cell-based. To be noted: B16-F10, 48 h.
Assay [1] addresses Telomerase reverse transcriptase (Homo sapiens, UniProt O14746). Nature of the assay: Inhibition of telomerase in human SGC7901 cells by TRAP assay. It counts as cell-based, SGC-7901.

Sequence of Telomerase reverse transcriptase (O14746 whole entry): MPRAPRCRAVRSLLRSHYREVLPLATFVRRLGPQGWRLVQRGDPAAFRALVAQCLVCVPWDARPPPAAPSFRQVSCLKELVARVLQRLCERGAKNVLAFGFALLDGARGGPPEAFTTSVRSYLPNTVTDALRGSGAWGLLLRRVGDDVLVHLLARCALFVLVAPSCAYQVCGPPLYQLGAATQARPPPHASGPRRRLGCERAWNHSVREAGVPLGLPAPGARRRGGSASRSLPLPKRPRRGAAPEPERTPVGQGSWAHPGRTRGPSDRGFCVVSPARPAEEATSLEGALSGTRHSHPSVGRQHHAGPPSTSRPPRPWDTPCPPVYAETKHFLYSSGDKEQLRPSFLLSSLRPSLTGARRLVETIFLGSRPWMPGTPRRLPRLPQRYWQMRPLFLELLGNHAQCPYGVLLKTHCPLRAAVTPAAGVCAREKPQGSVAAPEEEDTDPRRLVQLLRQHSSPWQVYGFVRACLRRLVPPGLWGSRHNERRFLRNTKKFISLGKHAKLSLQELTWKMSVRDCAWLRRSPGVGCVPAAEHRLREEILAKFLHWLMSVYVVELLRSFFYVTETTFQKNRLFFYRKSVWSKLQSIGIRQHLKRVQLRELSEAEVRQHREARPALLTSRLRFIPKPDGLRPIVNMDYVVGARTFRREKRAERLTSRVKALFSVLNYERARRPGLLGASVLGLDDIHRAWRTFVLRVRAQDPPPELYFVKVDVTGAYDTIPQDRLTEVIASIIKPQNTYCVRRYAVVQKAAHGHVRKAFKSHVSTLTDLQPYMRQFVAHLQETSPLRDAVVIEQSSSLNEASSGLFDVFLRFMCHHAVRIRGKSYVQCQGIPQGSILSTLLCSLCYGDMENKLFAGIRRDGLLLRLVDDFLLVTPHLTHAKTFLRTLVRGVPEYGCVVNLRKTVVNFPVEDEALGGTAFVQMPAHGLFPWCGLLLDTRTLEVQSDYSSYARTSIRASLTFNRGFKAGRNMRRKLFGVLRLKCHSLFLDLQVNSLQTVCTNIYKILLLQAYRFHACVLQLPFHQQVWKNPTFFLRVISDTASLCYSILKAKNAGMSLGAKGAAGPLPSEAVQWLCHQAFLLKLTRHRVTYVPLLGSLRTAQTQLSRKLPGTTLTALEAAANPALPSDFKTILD

As a reminder, the IC50 is the concentration that gives 50% inhibition. `CC(=O)N1N=C(c2ccc(C)cc2)CC1c1ccc2c(c1)OCO2` (stereo not given): the values for the IC50 (in the assay on SGC-7901; in the assay on B16-F10; in assay [1]) were 21.2 µM, 12.8 µM and 1.3 µM, respectively.
For `CC(=O)N1N=C(c2ccccc2)CC1c1ccc2c(c1)OCO2` (stereo not given) the same measures were 25.7 µM, 14 µM and 3.4 µM.
Take `CC(=O)N1N=C(c2ccc(Br)cc2)CC1c1ccc2c(c1)OCO2` (stereo not given): the IC50 in the assay on SGC-7901 came to 30.1 µM; with B16-F10, 18.9 µM; in assay [1] it was 6.2 µM.
`CC(=O)N1N=C(c2ccc(F)cc2)CC1c1ccc2c(c1)OCCCO2` (stereo not given): the half-inhibitory concentration (IC50) in assay [1] amounted to 83.6 µM.
Still for that read-out and setting: to `CC(=O)N1N=C(c2ccc(Cl)cc2)CC1c1ccc2c(c1)OCCCO2` (stereo not given) belongs 82.6 µM.
For the molecule `CC(=O)N1N=C(c2ccc(Br)cc2)CC1c1ccc2c(c1)OCCCO2` (stereo not given), the figures for the IC50 (in the assay with B16-F10; in assay [1]) were 97 µM and 76.4 µM, respectively.
For the molecule `CC(=O)N1N=C(c2ccc(C)cc2)CC1c1ccc2c(c1)OCCCO2` (stereo not given), the IC50 in the assay with B16-F10 is 89.7 µM; in assay [1], 54.9 µM.
Consider `COc1ccc(C2=NN(C(C)=O)C(c3ccc4c(c3)OCCCO4)C2)cc1` (stereo not given), for which the IC50 in the assay on SGC-7901 turned out to be 94 µM; with B16-F10 it was 85.3 µM; in assay [1], 46.7 µM.
In assay [1], `CC(=O)N1N=C(c2ccc([N+](=O)[O-])cc2)CC1c1ccc2c(c1)OCCCO2` (stereo not given) registered an IC50 of 93.2 µM.
Take `CC(=O)N1N=C(c2ccc(F)cc2)CC1c1ccc2c(c1)OCO2` (stereo not given): the IC50 with SGC-7901 came to 40.9 µM; in the assay with B16-F10, 22.2 µM; in assay [1], 7.3 µM.
For `CC(=O)N1N=C(c2ccc(Cl)cc2)CC1c1ccc2c(c1)OCO2` (stereo not given) the same measures were 35.3 µM, 20.8 µM and 6.7 µM.
For `COc1ccc(C2=NN(C(C)=O)C(c3ccc4c(c3)OCO4)C2)cc1` (stereo not given) the same measures were 18.1 µM, 5.34 µM and 0.9 µM.
For `CC(=O)N1N=C(c2ccc([N+](=O)[O-])cc2)CC1c1ccc2c(c1)OCO2` (stereo not given) the same measures were 41.9 µM, 24.7 µM and 8.7 µM.
As for `CC(=O)N1N=C(c2ccccc2)CC1c1ccc2c(c1)OCCO2` (stereo not given), the IC50 with SGC-7901 came to 50.2 µM; with B16-F10 it was 39.5 µM; in assay [1], 18.5 µM.
For `CC(=O)N1N=C(c2ccc(F)cc2)CC1c1ccc2c(c1)OCCO2` (stereo not given) the same measures were 68.4 µM, 53.1 µM and 25.7 µM.
For `CC(=O)N1N=C(c2ccc(Cl)cc2)CC1c1ccc2c(c1)OCCO2` (stereo not given) the same measures were 59.5 µM, 47.3 µM and 23.8 µM.
Take `CC(=O)N1N=C(c2ccc(Br)cc2)CC1c1ccc2c(c1)OCCO2` (stereo not given): the IC50 with SGC-7901 turned out to be 52.3 µM; in the assay with B16-F10, 44.1 µM; in assay [1], 22.9 µM.
For `CC(=O)N1N=C(c2ccc(C)cc2)CC1c1ccc2c(c1)OCCO2` (stereo not given) the same measures were 49.2 µM, 37.9 µM and 13.4 µM.
For `COc1ccc(C2=NN(C(C)=O)C(c3ccc4c(c3)OCCO4)C2)cc1` (stereo not given) the same measures were 45.8 µM, 31.7 µM and 10.6 µM.
For `CC(=O)N1N=C(c2ccc([N+](=O)[O-])cc2)CC1c1ccc2c(c1)OCCO2` (stereo not given) the same measures were 70 µM, 57.8 µM and 37.4 µM.
`CC(=O)N1N=C(c2ccccc2)CC1c1ccc2c(c1)OCCCO2` (stereo not given) had an IC50 in assay [1] of 68.3 µM.
On to `O=c1[nH]cc(F)c(=O)[nH]1` [FLUOROURACIL], for which the values for the IC50 in the assay with SGC-7901 and in the assay with B16-F10 were 46.4 µM and 21.4 µM, respectively.
